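48-hour exposure; five concentrations; linearly interpolated endpoints. The concentration for 50% growth inhibition is given as GI50.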 Active and inactive are the calls of the source. Rule as the data show it: active = GI50 up to about 1.1 µM and inactive = higher.
Legend:
Assay in all cases: inhibition of tumour cell growth, NCI panel, 48 h
786-0 = tested on: 786-0
A549 = tested on: A549
ACHN = tested on: ACHN
CAKI-1 = tested on: CAKI-1
CCRF-CEM = tested on: CCRF-CEM
COLO 205 = tested on: COLO 205
DLD-1 = tested on: DLD-1
DMS-273 = tested on: DMS-273
EKVX = tested on: EKVX
HCC 2998 = tested on: HCC 2998
HCT-15 = tested on: HCT-15
HL-60 = tested on: HL-60
HOP-92 = tested on: HOP-92
HT-29 = tested on: HT-29
IGROV-1 = tested on: IGROV-1
K562 = tested on: K562
KM-20L2 = tested on: KM-20L2
KM12 = tested on: KM12
LOX IMVI = tested on: LOX IMVI
LXFL 529 = tested on: LXFL 529
M14 = tested on: M14
M19-MEL = tested on: M19-MEL
MOLT-4 = tested on: MOLT-4
Malme-3M = tested on: Malme-3M
NCI-H23 = tested on: NCI-H23
NCI-H460 = tested on: NCI-H460
NCI-H522 = tested on: NCI-H522
OVCAR-3 = tested on: OVCAR-3
OVCAR-4 = tested on: OVCAR-4
OVCAR-5 = tested on: OVCAR-5
OVCAR-8 = tested on: OVCAR-8
RPMI-8226 = tested on: RPMI-8226
RXF 393 = tested on: RXF 393
SF-268 = tested on: SF-268
SF-295 = tested on: SF-295
SF-539 = tested on: SF-539
SK-MEL-28 = tested on: SK-MEL-28
SK-MEL-2 = tested on: SK-MEL-2
SK-MEL-5 = tested on: SK-MEL-5
SK-OV-3 = tested on: SK-OV-3
SN12C = tested on: SN12C
SNB-19 = tested on: SNB-19
SNB-75 = tested on: SNB-75
SW-620 = tested on: SW-620
TK-10 = tested on: TK-10
U-251 = tested on: U-251
UACC-257 = tested on: UACC-257
UACC-62 = tested on: UACC-62
UO-31 = tested on: UO-31
DMS-114 = tested on: DMS-114
HCT-116 = tested on: HCT-116
HOP-18 = tested on: HOP-18
HOP-62 = tested on: HOP-62
NCI-H226 = tested on: NCI-H226
SNB-78 = tested on: SNB-78
BT-549 = tested on: BT-549
DU-145 = tested on: DU-145
Hs-578T = tested on: Hs-578T
MCF7 = tested on: MCF7
NCI/ADR-RES = tested on: NCI/ADR-RES
SR = tested on: SR

SMILES: CCOC(=O)/C(C#N)=C1/C(O)=C(C(=O)OC)C(C(=O)OC)=C1C(=O)OC.c1ccncc1
- GI50 (786-0): > 100 µM (inactive)
- GI50 (A549): > 100 µM (inactive)
- GI50 (ACHN): > 100 µM (inactive)
- GI50 (CAKI-1): > 100 µM (inactive)
- GI50 (CCRF-CEM): > 100 µM (inactive)
- GI50 (COLO 205): > 100 µM (inactive)
- GI50 (DLD-1): > 100 µM (inactive)
- GI50 (DMS-273): > 100 µM (inactive)
- GI50 (EKVX): > 100 µM (inactive)
- GI50 (HCC 2998): > 100 µM (inactive)
- GI50 (HCT-15): > 100 µM
- GI50 (HL-60): > 100 µM (inactive)
- GI50 (HOP-92): > 100 µM (inactive)
- GI50 (HT-29): > 100 µM (inactive)
- GI50 (IGROV-1): > 100 µM (inactive)
- GI50 (K562): > 100 µM (inactive)
- GI50 (KM-20L2): > 100 µM (inactive)
- GI50 (KM12): > 100 µM (inactive)
- GI50 (LOX IMVI): > 100 µM (inactive)
- GI50 (LXFL 529): > 100 µM (inactive)
- GI50 (M14): > 100 µM (inactive)
- GI50 (M19-MEL): > 100 µM (inactive)
- GI50 (MOLT-4): > 100 µM (inactive)
- GI50 (Malme-3M): > 100 µM (inactive)
- GI50 (NCI-H23): > 100 µM (inactive)
- GI50 (NCI-H460): > 100 µM (inactive)
- GI50 (NCI-H522): > 100 µM (inactive)
- GI50 (OVCAR-3): > 100 µM (inactive)
- GI50 (OVCAR-4): > 100 µM (inactive)
- GI50 (OVCAR-5): > 100 µM (inactive)
- GI50 (OVCAR-8): > 100 µM (inactive)
- GI50 (RPMI-8226): > 100 µM (inactive)
- GI50 (RXF 393): > 100 µM (inactive)
- GI50 (SF-268): > 100 µM (inactive)
- GI50 (SF-295): > 100 µM (inactive)
- GI50 (SF-539): > 100 µM (inactive)
- GI50 (SK-MEL-28): > 100 µM (inactive)
- GI50 (SK-MEL-2): > 100 µM (inactive)
- GI50 (SK-MEL-5): > 100 µM (inactive)
- GI50 (SK-OV-3): > 100 µM (inactive)
- GI50 (SN12C): > 100 µM (inactive)
- GI50 (SNB-19): > 100 µM (inactive)
- GI50 (SNB-75): > 100 µM (inactive)
- GI50 (SW-620): > 100 µM (inactive)
- GI50 (TK-10): > 100 µM (inactive)
- GI50 (U-251): > 100 µM (inactive)
- GI50 (UACC-257): > 100 µM (inactive)
- GI50 (UACC-62): > 100 µM (inactive)
- GI50 (UO-31): > 100 µM (inactive)

SMILES: COc1ccc(/C=N/N=C(\N)NO)c(Cl)c1O
- GI50 (786-0): 18.4 µM (inactive)
- GI50 (A549): 5.43 µM (inactive)
- GI50 (ACHN): 14.9 µM (inactive)
- GI50 (CAKI-1): 10.3 µM (inactive)
- GI50 (CCRF-CEM): 14.7 µM (inactive)
- GI50 (COLO 205): 33 µM (inactive)
- GI50 (DLD-1): 25.5 µM (inactive)
- GI50 (DMS-114): 5.9 µM (inactive)
- GI50 (EKVX): 10 µM (inactive)
- GI50 (HCC 2998): 14.6 µM (inactive)
- GI50 (HCT-116): 15.2 µM (inactive)
- GI50 (HCT-15): 5.46 µM
- GI50 (HOP-18): 2.22 µM (inactive)
- GI50 (HOP-62): 6.21 µM (inactive)
- GI50 (HOP-92): 35.2 µM (inactive)
- GI50 (IGROV-1): 44.9 µM (inactive)
- GI50 (K562): 3.63 µM (inactive)
- GI50 (KM12): 12.5 µM (inactive)
- GI50 (LOX IMVI): 3.1 µM (inactive)
- GI50 (LXFL 529): 2.89 µM (inactive)
- GI50 (M19-MEL): 1.48 µM (inactive)
- GI50 (MOLT-4): 3.43 µM (inactive)
- GI50 (Malme-3M): 28.4 µM (inactive)
- GI50 (NCI-H226): 8.32 µM (inactive)
- GI50 (NCI-H23): 23.7 µM (inactive)
- GI50 (NCI-H522): 6.82 µM (inactive)
- GI50 (OVCAR-3): 4.69 µM (inactive)
- GI50 (OVCAR-4): 15.8 µM (inactive)
- GI50 (OVCAR-5): 1.91 µM (inactive)
- GI50 (OVCAR-8): 12.2 µM (inactive)
- GI50 (RPMI-8226): 36 µM (inactive)
- GI50 (RXF 393): 16.5 µM (inactive)
- GI50 (SF-268): 13.2 µM (inactive)
- GI50 (SF-295): 4.9 µM (inactive)
- GI50 (SF-539): 12.2 µM (inactive)
- GI50 (SK-MEL-28): 9.57 µM (inactive)
- GI50 (SK-MEL-2): 14.2 µM (inactive)
- GI50 (SK-MEL-5): 5.11 µM (inactive)
- GI50 (SK-OV-3): 22 µM (inactive)
- GI50 (SN12C): 27.4 µM (inactive)
- GI50 (SNB-19): 41 µM (inactive)
- GI50 (SNB-78): 34.1 µM (inactive)
- GI50 (SW-620): 19.4 µM (inactive)
- GI50 (U-251): 26.8 µM (inactive)
- GI50 (UACC-257): 20.2 µM (inactive)
- GI50 (UACC-62): 12.9 µM (inactive)
- GI50 (UO-31): 11.2 µM (inactive)

SMILES: COc1ccc2c(c1)-c1nn(CCCN(C)C)c3ccc([N+](=O)[O-])c(c13)N2
- GI50 (786-0): 0.0991 µM (active)
- GI50 (BT-549): 1.23 µM (inactive)
- GI50 (CAKI-1): 0.261 µM (active)
- GI50 (DLD-1): 0.181 µM (active)
- GI50 (DMS-273): 0.161 µM (active)
- GI50 (DU-145): 0.254 µM (active)
- GI50 (HCT-116): 0.0787 µM (active)
- GI50 (HT-29): 0.102 µM (active)
- GI50 (Hs-578T): 0.48 µM (active)
- GI50 (M14): 0.361 µM (active)
- GI50 (MCF7): 0.239 µM (active)
- GI50 (MOLT-4): 0.106 µM (active)
- GI50 (NCI-H23): 0.398 µM (active)
- GI50 (NCI/ADR-RES): 0.124 µM (active)
- GI50 (OVCAR-8): 0.121 µM (active)
- GI50 (RPMI-8226): 0.201 µM (active)
- GI50 (SF-268): 0.207 µM (active)
- GI50 (SK-MEL-2): 0.676 µM (active)
- GI50 (SK-MEL-5): 0.33 µM (active)
- GI50 (SN12C): 0.103 µM (active)
- GI50 (SR): 0.13 µM (active)
- GI50 (SW-620): 0.0719 µM (active)

Reference: ChEMBL document CHEMBL1201862, “PubChem BioAssay data set” (2004)
